From PubChem BioAssay (NCI)
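Where inhibition never reached the appropriate level, the endpoint shown equals the highest concentration tested. Otherwise, values were interpolated linearly from a five-concentration, 48-hour dose response in 96-well plates. At the TGI there is no net growth.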

Tests used:
Test in all cases: NCI tumour cell line growth inhibition, 48 h
HT29 colon = system: HT29 colon
NCI-H460 lung = system: NCI-H460 lung
XF 498 CNS = system: XF 498 CNS
NCI-H226 lung = system: NCI-H226 lung
IGROV1 ovarian = system: IGROV1 ovarian
SNB-19 CNS = system: SNB-19 CNS
RPMI-8226 leukemia = system: RPMI-8226 leukemia
HOP-92 NSCLC = system: HOP-92 NSCLC
CAKI-1 renal = system: CAKI-1 renal
HOP-62 NSCLC = system: HOP-62 NSCLC
SK-MEL-5 melanoma = system: SK-MEL-5 melanoma
P388/ADR leukemia = system: P388/ADR leukemia
CCRF-CEM leukemia = system: CCRF-CEM leukemia
SF-539 CNS = system: SF-539 CNS
UACC-62 melanoma = system: UACC-62 melanoma
MALME-3M melanoma = system: MALME-3M melanoma
U251 CNS = system: U251 CNS
SW-620 colon = system: SW-620 colon
SF-295 CNS = system: SF-295 CNS
M19-MEL melanoma = system: M19-MEL melanoma
MCF7 breast = system: MCF7 breast
HOP-18 NSCLC = system: HOP-18 NSCLC
K-562 leukemia = system: K-562 leukemia
OVCAR-5 ovarian = system: OVCAR-5 ovarian
SF-268 CNS = system: SF-268 CNS
SK-MEL-28 melanoma = system: SK-MEL-28 melanoma
LOX IMVI melanoma = system: LOX IMVI melanoma
UACC-257 melanoma = system: UACC-257 melanoma
MOLT-4 leukemia = system: MOLT-4 leukemia
KM20L2 colon = system: KM20L2 colon
OVCAR-8 ovarian = system: OVCAR-8 ovarian
HL-60(TB) leukemia = system: HL-60(TB) leukemia
A498 renal = system: A498 renal
DMS 114 small cell lung = system: DMS 114 small cell lung
SNB-75 CNS = system: SNB-75 CNS
COLO 205 colon = system: COLO 205 colon
SK-MEL-2 melanoma = system: SK-MEL-2 melanoma
EKVX NSCLC = system: EKVX NSCLC
SN12C renal = system: SN12C renal
OVCAR-3 ovarian = system: OVCAR-3 ovarian
OVCAR-4 ovarian = system: OVCAR-4 ovarian
SK-OV-3 ovarian = system: SK-OV-3 ovarian
DMS 273 small cell lung = system: DMS 273 small cell lung
SN12K1 renal = system: SN12K1 renal
KM12 colon = system: KM12 colon
A549 NSCLC = system: A549 NSCLC
RXF 393 renal = system: RXF 393 renal
P388 leukemia = system: P388 leukemia
DLD-1 colon = system: DLD-1 colon
HCC-2998 colon = system: HCC-2998 colon
NCI-H23 lung = system: NCI-H23 lung
HCT-15 colon = system: HCT-15 colon
NCI-H522 lung = system: NCI-H522 lung
SNB-78 CNS = system: SNB-78 CNS
HCT-116 colon = system: HCT-116 colon
NCI/ADR-RES ovarian = system: NCI/ADR-RES ovarian
UO-31 renal = system: UO-31 renal
786-0 renal = system: 786-0 renal
LXFL 529 NSCLC = system: LXFL 529 NSCLC
SR leukemia = system: SR leukemia
M14 melanoma = system: M14 melanoma
TK-10 renal = system: TK-10 renal
ACHN renal = system: ACHN renal
RXF-631 renal = system: RXF-631 renal
MDA-N = system: MDA-N
T-47D breast = system: T-47D breast
BT-549 breast = system: BT-549 breast
PC-3 prostate = system: PC-3 prostate
HS 578T breast = system: HS 578T breast
MDA-MB-231 breast = system: MDA-MB-231 breast
DU-145 prostate = system: DU-145 prostate
MDA-MB-435 = system: MDA-MB-435

## CCCSCC(P(=O)(O)O)P(=O)(O)O
HT29 colon
  TGI: > 100 µM
NCI-H460 lung
  TGI: > 100 µM
XF 498 CNS
  TGI: > 100 µM
NCI-H226 lung
  TGI: > 100 µM
IGROV1 ovarian
  TGI: > 100 µM
SNB-19 CNS
  TGI: > 100 µM
RPMI-8226 leukemia
  TGI: > 100 µM
HOP-92 NSCLC
  TGI: > 100 µM
CAKI-1 renal
  TGI: > 100 µM
HOP-62 NSCLC
  TGI: > 100 µM
SK-MEL-5 melanoma
  TGI: > 100 µM
P388/ADR leukemia
  TGI: > 100 µM
CCRF-CEM leukemia
  TGI: > 100 µM
SF-539 CNS
  TGI: > 100 µM
UACC-62 melanoma
  TGI: > 100 µM
MALME-3M melanoma
  TGI: > 100 µM
U251 CNS
  TGI: > 100 µM
SW-620 colon
  TGI: > 100 µM
SF-295 CNS
  TGI: > 100 µM
M19-MEL melanoma
  TGI: > 100 µM
MCF7 breast
  TGI: > 100 µM
HOP-18 NSCLC
  TGI: > 100 µM
K-562 leukemia
  TGI: > 100 µM
OVCAR-5 ovarian
  TGI: > 100 µM
SF-268 CNS
  TGI: > 100 µM
SK-MEL-28 melanoma
  TGI: > 100 µM
LOX IMVI melanoma
  TGI: > 100 µM
UACC-257 melanoma
  TGI: > 100 µM
MOLT-4 leukemia
  TGI: > 100 µM
KM20L2 colon
  TGI: > 100 µM
OVCAR-8 ovarian
  TGI: > 100 µM
HL-60(TB) leukemia
  TGI: > 100 µM
A498 renal
  TGI: > 100 µM
DMS 114 small cell lung
  TGI: > 100 µM
SNB-75 CNS
  TGI: > 100 µM
COLO 205 colon
  TGI: > 100 µM
SK-MEL-2 melanoma
  TGI: > 100 µM
EKVX NSCLC
  TGI: > 100 µM
SN12C renal
  TGI: > 100 µM
OVCAR-3 ovarian
  TGI: > 86.9 µM
OVCAR-4 ovarian
  TGI: > 100 µM
SK-OV-3 ovarian
  TGI: > 100 µM
DMS 273 small cell lung
  TGI: > 100 µM
SN12K1 renal
  TGI: > 100 µM
KM12 colon
  TGI: > 100 µM
A549 NSCLC
  TGI: > 100 µM
RXF 393 renal
  TGI: > 100 µM
P388 leukemia
  TGI: > 100 µM
DLD-1 colon
  TGI: > 100 µM
HCC-2998 colon
  TGI: > 100 µM
NCI-H23 lung
  TGI: > 100 µM
HCT-15 colon
  TGI: > 100 µM
NCI-H522 lung
  TGI: > 100 µM
SNB-78 CNS
  TGI: > 100 µM
HCT-116 colon
  TGI: > 100 µM
NCI/ADR-RES ovarian
  TGI: > 100 µM
UO-31 renal
  TGI: > 100 µM

## CN(C)c1nc(=Nc2ccc(N=c3nc(N(C)C)ss3)cc2)ss1
HT29 colon
  TGI: 54.5 µM
786-0 renal
  TGI: > 100 µM
NCI-H460 lung
  TGI: > 100 µM
NCI-H226 lung
  TGI: > 100 µM
IGROV1 ovarian
  TGI: > 71.7 µM
SNB-19 CNS
  TGI: > 100 µM
LXFL 529 NSCLC
  TGI: > 52.1 µM
RPMI-8226 leukemia
  TGI: 40.7 µM
HOP-92 NSCLC
  TGI: > 100 µM
CAKI-1 renal
  TGI: > 59.5 µM
HOP-62 NSCLC
  TGI: > 100 µM
SR leukemia
  TGI: 64.9 µM
SK-MEL-5 melanoma
  TGI: > 61.2 µM
CCRF-CEM leukemia
  TGI: 27.7 µM
SF-539 CNS
  TGI: > 100 µM
UACC-62 melanoma
  TGI: > 21.3 µM
MALME-3M melanoma
  TGI: 51.4 µM
M14 melanoma
  TGI: 25.6 µM
U251 CNS
  TGI: > 49.8 µM
SW-620 colon
  TGI: > 65.9 µM
SF-295 CNS
  TGI: > 100 µM
M19-MEL melanoma
  TGI: 40.1 µM
HOP-18 NSCLC
  TGI: > 100 µM
K-562 leukemia
  TGI: 30.5 µM
OVCAR-5 ovarian
  TGI: > 100 µM
SF-268 CNS
  TGI: 99.2 µM
TK-10 renal
  TGI: > 31.6 µM
SK-MEL-28 melanoma
  TGI: 33.6 µM
LOX IMVI melanoma
  TGI: > 67.9 µM
UACC-257 melanoma
  TGI: > 91.4 µM
MOLT-4 leukemia
  TGI: 51.3 µM
KM20L2 colon
  TGI: > 100 µM
OVCAR-8 ovarian
  TGI: 34.2 µM
HL-60(TB) leukemia
  TGI: 45.3 µM
A498 renal
  TGI: > 79.3 µM
DMS 114 small cell lung
  TGI: 38.1 µM
SNB-75 CNS
  TGI: > 100 µM
COLO 205 colon
  TGI: 70.6 µM
SK-MEL-2 melanoma
  TGI: > 100 µM
EKVX NSCLC
  TGI: > 100 µM
SN12C renal
  TGI: > 92.3 µM
OVCAR-3 ovarian
  TGI: > 78.6 µM
OVCAR-4 ovarian
  TGI: 48.1 µM
SK-OV-3 ovarian
  TGI: > 100 µM
DMS 273 small cell lung
  TGI: > 64 µM
KM12 colon
  TGI: > 100 µM
A549 NSCLC
  TGI: > 100 µM
RXF 393 renal
  TGI: 41.4 µM
DLD-1 colon
  TGI: 30.2 µM
ACHN renal
  TGI: > 100 µM
HCC-2998 colon
  TGI: > 100 µM
NCI-H23 lung
  TGI: 20.1 µM
HCT-15 colon
  TGI: > 100 µM
NCI-H522 lung
  TGI: 25.8 µM
SNB-78 CNS
  TGI: 38.5 µM
HCT-116 colon
  TGI: 34.1 µM
RXF-631 renal
  TGI: 38.8 µM
UO-31 renal
  TGI: > 81.6 µM

## CC(=O)OC1=CC(n2cc(F)c(=O)[nH]c2=O)OC(C)C1=O (configuration not stated)
HT29 colon
  TGI: > 100 µM
786-0 renal
  TGI: > 100 µM
NCI-H460 lung
  TGI: > 100 µM
XF 498 CNS
  TGI: > 100 µM
NCI-H226 lung
  TGI: > 100 µM
IGROV1 ovarian
  TGI: > 100 µM
SNB-19 CNS
  TGI: > 100 µM
LXFL 529 NSCLC
  TGI: > 100 µM
MDA-N
  TGI: > 100 µM
RPMI-8226 leukemia
  TGI: > 100 µM
HOP-92 NSCLC
  TGI: > 100 µM
CAKI-1 renal
  TGI: > 100 µM
HOP-62 NSCLC
  TGI: > 100 µM
T-47D breast
  TGI: > 100 µM
SR leukemia
  TGI: > 100 µM
SK-MEL-5 melanoma
  TGI: > 100 µM
CCRF-CEM leukemia
  TGI: > 100 µM
SF-539 CNS
  TGI: 29 µM
UACC-62 melanoma
  TGI: > 100 µM
MALME-3M melanoma
  TGI: > 100 µM
BT-549 breast
  TGI: > 100 µM
M14 melanoma
  TGI: > 100 µM
U251 CNS
  TGI: > 100 µM
SW-620 colon
  TGI: > 100 µM
SF-295 CNS
  TGI: > 100 µM
M19-MEL melanoma
  TGI: > 100 µM
MCF7 breast
  TGI: > 76.2 µM
HOP-18 NSCLC
  TGI: > 100 µM
K-562 leukemia
  TGI: > 100 µM
OVCAR-5 ovarian
  TGI: > 100 µM
SF-268 CNS
  TGI: > 100 µM
TK-10 renal
  TGI: > 100 µM
SK-MEL-28 melanoma
  TGI: > 100 µM
LOX IMVI melanoma
  TGI: > 100 µM
UACC-257 melanoma
  TGI: > 100 µM
PC-3 prostate
  TGI: > 100 µM
MOLT-4 leukemia
  TGI: > 100 µM
OVCAR-8 ovarian
  TGI: > 100 µM
HL-60(TB) leukemia
  TGI: > 100 µM
HS 578T breast
  TGI: > 100 µM
A498 renal
  TGI: > 44.9 µM
DMS 114 small cell lung
  TGI: > 100 µM
SNB-75 CNS
  TGI: 99.5 µM
COLO 205 colon
  TGI: > 100 µM
SK-MEL-2 melanoma
  TGI: > 100 µM
EKVX NSCLC
  TGI: > 100 µM
SN12C renal
  TGI: > 100 µM
OVCAR-3 ovarian
  TGI: > 100 µM
OVCAR-4 ovarian
  TGI: > 100 µM
SK-OV-3 ovarian
  TGI: > 100 µM
DMS 273 small cell lung
  TGI: > 100 µM
KM12 colon
  TGI: > 100 µM
A549 NSCLC
  TGI: > 63.1 µM
RXF 393 renal
  TGI: > 100 µM
MDA-MB-231 breast
  TGI: > 100 µM
DLD-1 colon
  TGI: > 100 µM
ACHN renal
  TGI: > 100 µM
HCC-2998 colon
  TGI: > 97.2 µM
DU-145 prostate
  TGI: > 100 µM
NCI-H23 lung
  TGI: > 100 µM
HCT-15 colon
  TGI: > 100 µM
NCI-H522 lung
  TGI: > 100 µM
SNB-78 CNS
  TGI: > 100 µM
HCT-116 colon
  TGI: > 100 µM
NCI/ADR-RES ovarian
  TGI: > 100 µM
UO-31 renal
  TGI: > 100 µM
MDA-MB-435
  TGI: > 100 µM
